ChEMBL document CHEMBL5375972, “Discovery of Novel 2,3-Dihydro-1H-indene-5-sulfonamide NLRP3 Inflammasome Inhibitors Targeting Colon as a Potential Therapy for Colitis” (J Med Chem, 2023)
pKd: −log10 of the molar value. Active and inactive are the calls of the source. The rule behind the calls is not given here.

Assays:
[1] = Cytotoxicity against mouse J774.A1 cells incubated for 24 hrs by resazurin reagent based assay; type: toxicity, cell-based
[2] = Cytotoxicity against human HL7702 cells incubated for 48 hrs by resazurin reagent based assay; type: toxicity, cell-based; settings: HL7702 (L02) cells
[3] = molecular target: NLR family CARD domain-containing protein 4 (Mus musculus) (UniProt Q3UP24); test: Inhibition of NLRC4 inflammasome in mouse J774.A1 cells assessed as inhibition of LPS/flagellin-induced IL-1 beta secretion at 10 uM pretreated with LPS and compound for 1 hr followed by flagellin addition measured after 6 hrs by ELISA; type: cell-based; settings: time 7.0 hrs
Chain of NLR family CARD domain-containing protein 4 (Mus musculus) (Q3UP24 whole entry, the tested form may be a part): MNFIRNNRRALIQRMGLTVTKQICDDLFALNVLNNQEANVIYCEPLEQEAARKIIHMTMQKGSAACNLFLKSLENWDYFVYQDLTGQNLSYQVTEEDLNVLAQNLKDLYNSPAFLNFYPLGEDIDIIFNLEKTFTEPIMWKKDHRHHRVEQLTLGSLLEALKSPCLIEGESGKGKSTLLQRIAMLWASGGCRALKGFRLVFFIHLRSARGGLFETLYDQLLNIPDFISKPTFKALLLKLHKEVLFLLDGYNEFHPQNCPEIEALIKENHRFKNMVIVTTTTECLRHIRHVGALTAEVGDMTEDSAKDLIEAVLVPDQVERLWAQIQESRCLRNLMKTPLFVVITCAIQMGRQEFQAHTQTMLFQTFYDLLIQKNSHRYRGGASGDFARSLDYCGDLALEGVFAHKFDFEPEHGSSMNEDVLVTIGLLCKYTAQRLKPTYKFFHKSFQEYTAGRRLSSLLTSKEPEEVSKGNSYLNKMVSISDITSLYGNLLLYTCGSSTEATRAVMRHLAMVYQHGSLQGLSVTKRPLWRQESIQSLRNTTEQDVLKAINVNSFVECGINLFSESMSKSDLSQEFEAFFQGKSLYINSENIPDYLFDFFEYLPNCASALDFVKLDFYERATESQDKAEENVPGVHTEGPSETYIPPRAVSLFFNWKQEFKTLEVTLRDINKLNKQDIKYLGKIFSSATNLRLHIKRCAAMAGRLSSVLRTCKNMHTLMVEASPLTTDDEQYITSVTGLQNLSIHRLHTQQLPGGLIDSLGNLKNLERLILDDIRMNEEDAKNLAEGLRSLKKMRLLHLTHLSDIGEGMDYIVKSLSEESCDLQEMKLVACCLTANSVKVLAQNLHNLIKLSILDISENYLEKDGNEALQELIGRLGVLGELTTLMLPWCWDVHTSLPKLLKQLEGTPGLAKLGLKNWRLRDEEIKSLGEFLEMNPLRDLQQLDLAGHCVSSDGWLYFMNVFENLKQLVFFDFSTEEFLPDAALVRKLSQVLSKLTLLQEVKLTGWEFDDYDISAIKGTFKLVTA

[4] = molecular target: T1, Interferon-inducible protein AIM2 (Mus musculus) (UniProt Q91VJ1); test: Inhibition of AIM2 inflammasome in mouse J774.A1 cells assessed as inhibition of IL-1 beta secretion at 10 uM pretreated with LPS and compound for 1 hr and later stimulated with poly (dA:dT) for 8 hrs by ELISA; type: cell-based; settings: time 9.0 hrs
T1 sequence (whole entry): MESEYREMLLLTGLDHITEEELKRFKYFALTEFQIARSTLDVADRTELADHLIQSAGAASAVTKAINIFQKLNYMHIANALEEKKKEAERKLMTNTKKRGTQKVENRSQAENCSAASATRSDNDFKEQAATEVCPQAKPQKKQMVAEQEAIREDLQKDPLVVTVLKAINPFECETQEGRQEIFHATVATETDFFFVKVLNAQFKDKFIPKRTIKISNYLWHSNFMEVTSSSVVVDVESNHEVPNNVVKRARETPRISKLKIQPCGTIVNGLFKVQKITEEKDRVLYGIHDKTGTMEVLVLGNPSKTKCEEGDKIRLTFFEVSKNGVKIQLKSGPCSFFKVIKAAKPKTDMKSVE

J774.A1 = test: Inhibition of NF-kappaB pathway in mouse J774.A1 cells assessed as inhibition of LPS-induced IL-6 secretion at 0.1 to 30 uM pretreated for 1hr followed by LPS addition for 6 hrs by ELISA; type: cell-based; settings: dose 0.1-30 µM, time 7.0 hrs
[5] = molecular target: NACHT, LRR and PYD domains-containing protein 3 (Homo sapiens, UniProt Q96P20); test: Binding affinity to human NLRP3 assessed as equilibrium dissociation constant by surface plasmon resonance assay
Chain of NACHT, LRR and PYD domains-containing protein 3 (Q96P20 whole entry, the tested form may be a part): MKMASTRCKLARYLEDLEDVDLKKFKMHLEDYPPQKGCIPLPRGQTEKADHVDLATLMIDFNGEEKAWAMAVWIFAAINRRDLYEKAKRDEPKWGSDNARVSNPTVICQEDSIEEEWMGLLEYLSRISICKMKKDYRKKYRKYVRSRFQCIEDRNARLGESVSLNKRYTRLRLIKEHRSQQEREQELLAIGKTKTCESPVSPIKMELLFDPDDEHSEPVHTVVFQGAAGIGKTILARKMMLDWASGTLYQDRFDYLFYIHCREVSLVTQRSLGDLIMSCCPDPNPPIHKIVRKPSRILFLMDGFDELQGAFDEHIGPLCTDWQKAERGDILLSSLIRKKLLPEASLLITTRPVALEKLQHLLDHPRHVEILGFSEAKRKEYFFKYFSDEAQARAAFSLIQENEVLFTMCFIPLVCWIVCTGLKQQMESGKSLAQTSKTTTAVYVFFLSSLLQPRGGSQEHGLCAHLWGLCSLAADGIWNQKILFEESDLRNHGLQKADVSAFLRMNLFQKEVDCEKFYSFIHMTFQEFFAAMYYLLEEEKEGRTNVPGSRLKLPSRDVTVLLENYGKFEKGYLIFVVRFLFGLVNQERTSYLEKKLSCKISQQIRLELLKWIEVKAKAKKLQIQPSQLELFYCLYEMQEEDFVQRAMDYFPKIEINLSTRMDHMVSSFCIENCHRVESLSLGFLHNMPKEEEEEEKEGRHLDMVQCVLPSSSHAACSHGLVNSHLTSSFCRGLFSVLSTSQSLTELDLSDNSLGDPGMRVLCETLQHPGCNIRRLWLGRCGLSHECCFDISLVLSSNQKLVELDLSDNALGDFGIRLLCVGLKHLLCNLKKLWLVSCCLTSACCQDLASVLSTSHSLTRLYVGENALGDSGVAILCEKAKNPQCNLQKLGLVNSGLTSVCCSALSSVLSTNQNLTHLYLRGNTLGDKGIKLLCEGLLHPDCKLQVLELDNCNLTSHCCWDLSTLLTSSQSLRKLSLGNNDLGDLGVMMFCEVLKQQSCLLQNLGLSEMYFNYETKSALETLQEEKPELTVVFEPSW

[6] = Half life in Sprague-Dawley rat at 1 mg/kg,iv measured after 24 hrs by HPLC-MS/MS analysis; type: ADME, organism-based; settings: in vivo
[7] = Clearance in Sprague-Dawley rat at 1 mg/kg,iv measured after 24 hrs by HPLC-MS/MS analysis; type: ADME, organism-based; settings: in vivo
[8] = Stability of compound in rat liver measured for 48 hrs; type: ADME, tissue-based
[9] = Drug distribution in Sprague-Dawley rat heart at 1 mg/kg,iv measured for 0.5 to 2 hrs by HPLC-MS/MS analysis; type: ADME, organism-based; settings: in vivo, time 0.5-2 hrs
[10] = Drug distribution in Sprague-Dawley rat kidney at 1 mg/kg,iv measured for 0.5 to 2 hrs by HPLC-MS/MS analysis; type: ADME, organism-based; settings: in vivo, time 0.5-2 hrs
[11] = Drug distribution in Sprague-Dawley rat brain at 1 mg/kg,iv measured for 0.5 to 2 hrs by HPLC-MS/MS analysis; type: ADME, organism-based; settings: in vivo, time 0.5-2 hrs
Mus musculus [12] = test: Anti-inflammatory activity in DSS-induced ulcerative colitis C57BL/6 mouse model assessed as increase in body weight at 10 mg/kg,ip administrated for 9 days; type: functional, organism-based; settings: time 9.0 day
Mus musculus [13] = test: Anti-inflammatory activity in DSS-induced ulcerative colitis C57BL/6 mouse model assessed as increase in colon length at 10 mg/kg,ip administrated for 9 days; type: functional, organism-based; settings: time 9.0 day
Mus musculus [14] = test: Anti-inflammatory activity in DSS-induced ulcerative colitis C57BL/6 mouse model assessed as reduction in inflammatory cell infiltration in colon at 10 mg/kg,ip administrated for 9 days by Hematoxylin-eosin staining based microscopic analysis; type: functional, organism-based; settings: time 9.0 day
Mus musculus [15] = test: Anti-inflammatory activity in DSS-induced ulcerative colitis C57BL/6 mouse model assessed as reduction in crypt necrosis in colon at 10 mg/kg,ip administrated for 9 days by Hematoxylin-eosin staining based microscopic analysis; type: functional, organism-based; settings: time 9.0 day
Mus musculus [16] = test: Anti-inflammatory activity in DSS-induced ulcerative colitis C57BL/6 mouse model assessed as decrease in NLRP3 expression in colon at 10 mg/kg,ip administrated for 9 days by immunohistochemistry analysis; type: functional, organism-based; settings: time 9.0 day
Mus musculus [17] = test: Anti-inflammatory activity in DSS-induced ulcerative colitis C57BL/6 mouse model assessed as decrease in caspase-1 expression in colon at 10 mg/kg,ip administrated for 9 days by immunohistochemistry analysis; type: functional, organism-based; settings: time 9.0 day
Mus musculus [18] = test: Anti-inflammatory activity in DSS-induced ulcerative colitis C57BL/6 mouse model assessed as decrease in IL-1beta p17 protein expression in colon at 10 mg/kg,ip administrated for 9 days by Western blotting analysis; type: functional, organism-based; settings: time 9.0 day
[19] = Acute toxicity in Kunming mouse model assessed as lethal dose at IG administration for 7 days; settings: in vivo, po, time 7 day
[20] = Acute toxicity in Kunming mouse model assessed as change in body weight at 2000 mg/kg,IG administration for 7 days; type: organism-based; settings: in vivo, po, 168 h, time 7 day
[21] = Acute toxicity in Kunming mouse model assessed as lethargy at 2000 mg/kg,IG administration for 7 days; type: organism-based; settings: in vivo, po, 168 h, time 7 day
[22] = Acute toxicity in Kunming mouse model assessed as ruffled fur at 2000 mg/kg,IG administration for 7 days; type: organism-based; settings: in vivo, po, 168 h, time 7 day
[23] = Subacute toxicity in C57BL/6 mouse assessed as change in heart weight at 10 mg/kg,ip administrated for 14 days; type: organism-based; settings: in vivo, 336 h, time 14 day
[24] = Subacute toxicity in C57BL/6 mouse assessed as change in heart weight at 100 mg/kg,ip administrated for 14 days; type: organism-based; settings: in vivo, 336 h, time 14 day
[25] = Subacute toxicity in C57BL/6 mouse assessed as change in lung weight at 10 mg/kg,ip administrated for 14 days; type: organism-based; settings: in vivo, 336 h, time 14 day
[26] = Subacute toxicity in C57BL/6 mouse assessed as change in lung weight at 100 mg/kg,ip administrated for 14 days; type: organism-based; settings: in vivo, 336 h, time 14 day
[27] = Subacute toxicity in C57BL/6 mouse assessed as change in kidney weight at 100 mg/kg,ip administrated for 14 days; type: organism-based; settings: in vivo, 336 h, time 14 day
[28] = Subacute toxicity in C57BL/6 mouse assessed as change in colon weight at 10 mg/kg,ip administrated for 14 days; type: organism-based; settings: in vivo, 336 h, time 14 day
[29] = Subacute toxicity in C57BL/6 mouse assessed as liver histological changes at 10 mg/kg,ip administrated for 14 days; type: organism-based; settings: in vivo, 336 h, time 14 day
[30] = Subacute toxicity in C57BL/6 mouse assessed as liver histological changes at 100 mg/kg,ip administrated for 14 days; type: organism-based; settings: in vivo, 336 h, time 14 day
[31] = Subacute toxicity in C57BL/6 mouse assessed as lung histological changes at 10 mg/kg,ip administrated for 14 days; type: organism-based; settings: in vivo, 336 h, time 14 day
[32] = Subacute toxicity in C57BL/6 mouse assessed as kidney histological changes at 10 mg/kg,ip administrated for 14 days; type: organism-based; settings: in vivo, 336 h, time 14 day
[33] = Subacute toxicity in C57BL/6 mouse assessed as colon histological changes at 10 mg/kg,ip administrated for 14 days; type: organism-based; settings: in vivo, 336 h, time 14 day
[34] = Subacute toxicity in C57BL/6 mouse assessed as colon histological changes at 100 mg/kg,ip administrated for 14 days; type: organism-based; settings: in vivo, 336 h, time 14 day

In the case of `CCCNS(=O)(=O)c1ccc2c(c1)CC(N(Cc1cc(Cl)ccc1OCCOC)C(=O)c1cc3ccccc3o1)C2` (racemic), the CC50 at 24 h [1] was greater than 30 µM, the CC50 at 48 h [2] was greater than 1000 µM and the inhibition [3] was “inactive”. The inhibition [4] was “inactive”, the inhibition (J774.A1) was “inactive” and the pKd [5] was 6.99. The half-life [6] was 1.5 h, the clearance [7] was 78.4 mL/min/kg and the Stability [8] was “Stable”. For the same molecule, the Drug uptake [9] was “Active”, the Drug uptake [10] was “Active” and the Drug uptake [11] was “Active”. The Activity (Mus musculus [12]) was “Active”, the Activity (Mus musculus [13]) was “Active” and the Activity (Mus musculus [14]) was “Active”. The Activity (Mus musculus [15]) was “Active”, the Activity (Mus musculus [16]) was “Active” and the Activity (Mus musculus [17]) was “Active”. The Activity (Mus musculus [18]) was “Active”, the LD50 at 168 h [19] was 2000 mg/kg and the Activity [20] was “Non-Toxic”. For the same molecule, the Activity [21] was “Non-Toxic”, the Activity [22] was “Non-Toxic” and the Activity [23] was “Non-Toxic”. The Activity [24] was “Non-Toxic”, the Activity [25] was “Non-Toxic” and the Activity [26] was “Non-Toxic”. For the same molecule, the Activity [27] was “Non-Toxic”, the Activity [28] was “Non-Toxic” and the Activity [29] was “Non-Toxic”. For the same molecule, the Activity [30] was “Non-Toxic”, the Activity [31] was “Non-Toxic” and the Activity [32] was “Non-Toxic”. For the same molecule, the Activity [33] was “Non-Toxic” and the Activity [34] was “Non-Toxic”.
